{"source": "paper PMC6669322", "about": "“Small Molecule Binding to Alzheimer Risk Factor CD33 Promotes Aβ Phagocytosis” (iScience, 2019)", "tested_on": "differentiated THP-1 cells", "assay": "THP-1 phagocytosis assay (pHrodo E. coli BioParticles), wild-type cells", "format": "cell-based, human", "conditions": "30 min pre-treatment, in words", "from_the_text": "Having shown that P22 binds specifically to the sialic acid-binding site of this domain we now have a chemical tool to answer the question of whether the sialic acid-binding site is the appropriate target for small molecule ligands that might promote Aβ uptake. Siglecs preferentially recognize multivalent presentation of their ligands ([Rillahan et al., 2014], [Büll et al., 2016]), and for this reason we conjugated the biotinylated form of P22 to microparticles labeled with both FITC and streptavidin (P22 microparticles) (see Transparent Methods). More than 60% CD33-transfected BV2 cells were positive for P22 microparticles compared with only 30% cells that were only incubated with control particles (unconjugated to P22) (Figure 4A). […]\nFigure 4 Effect of P22 on Phagocytosis The cells were treated with P22 conjugated to microparticles labeled with both streptavidin and fluorescein isothiocyanate (FITC), or with microparticles without P22 conjugated as control. […] (C) Quantification of phagocytic differentiated human THP-1 cells after incubation with P22 monomer, P22 conjugated microparticles, or microparticles without P22 conjugation. […]\nTHP-1 cells (control and CD33KO) were differentiated in growth media (RPMI 1640, 10% FCS) supplemented with 100 ng/mL PMA for 3 days. […] Differentiated cells were then lifted, counted and 75,000 cells/well were plated in a 96 well plate. […]"}
{"compound": "Cc1cc(C(=O)NC[C@@H](O)[C@@H](O)[C@@H]2O[C@@](OC[C@H]3O[C@@H](O[C@H]4[C@H](O)[C@@H](O)[C@H](OCCN)O[C@@H]4CO)[C@H](O)[C@@H](O)[C@H]3O)(C(=O)O)C[C@H](O)[C@H]2NC(=O)Cn2cc(C3CCCCC3)nn2)cc(C)c1O", "note": "[P22, β-D-Glucopyranoside, 2-aminoethyl O-[N-[2-(4-cyclohexyl-1H-1,2,3-triazol-1-yl)acetyl]-9-deoxy-9-[(4-hydroxy-3,5-dimethylbenzoyl)amino]-α-neuraminosyl] (2→6)-O-β-D-galactopyranosyl-(1→4)-]", "values": [{"measurement": "effect on phagocytosis of E. coli BioParticles", "value": "no effect"}]}
